# Reference: ChEMBL document CHEMBL4808169, “Discovery of Potent and Fast-Acting Antimalarial Bis-1,2,4-triazines” (J Med Chem, 2021)
# Calls of active or inactive are those of the source. The rule behind the calls is not given here.
# Columns and labels:
# [1] = Drug metabolism in mouse liver microsomes assessed as oxygenated metabolite N-methyl-2-(3'-propoxy-5,5'-bi(1,2,4-triazin)-3-yloxy)ethanamine oxide formation by LC-MS/MS(CID) analysis; type: ADME, Microsome
# [2] = Drug metabolism in mouse hepatocytes assessed as N-methyl-2-(3'-propoxy-5,5'-bi(1,2,4-triazin)-3-yloxy)ethanamine formation by LC-MS/MS(CID) analysis; type: ADME, cell-based, Hepatocyte
# Cytochrome P450 2D6 = Cytochrome P450 2D6 (Homo sapiens, UniProt P10635); test: Inhibition of CYP2D6 in human liver microsomes assessed as reduction in […] activity by . high-pressure liquid chromatography-tandem mass spectrometry; type: ADME
# Chain of Cytochrome P450 2D6 (P10635 whole entry): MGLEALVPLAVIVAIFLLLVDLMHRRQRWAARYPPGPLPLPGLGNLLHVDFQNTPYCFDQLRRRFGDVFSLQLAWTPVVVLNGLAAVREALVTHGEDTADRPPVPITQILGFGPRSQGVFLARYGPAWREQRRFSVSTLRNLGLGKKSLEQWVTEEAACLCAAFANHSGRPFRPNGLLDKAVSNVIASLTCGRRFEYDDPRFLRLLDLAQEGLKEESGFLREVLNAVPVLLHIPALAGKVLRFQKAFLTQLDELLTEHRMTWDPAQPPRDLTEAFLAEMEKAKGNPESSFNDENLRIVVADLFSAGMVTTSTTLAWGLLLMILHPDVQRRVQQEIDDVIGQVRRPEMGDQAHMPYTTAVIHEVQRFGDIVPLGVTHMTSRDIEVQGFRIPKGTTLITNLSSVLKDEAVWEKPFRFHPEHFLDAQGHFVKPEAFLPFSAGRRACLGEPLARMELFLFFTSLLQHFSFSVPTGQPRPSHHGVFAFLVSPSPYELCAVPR
# [3] = Drug metabolism in human hepatocytes assessed as glucuronides/sulfates metabolite formation by LC-MS/MS(CID) analysis; type: ADME, cell-based, Hepatocyte
# [4] = Clearance in ABT-treated Sprague-Dawley rat blood at 3 mg/kg, iv by LC-MS analysis; type: ADME, organism-based
# [5] = Drug metabolism in rat liver microsomes assessed as oxygenated metabolite N-methyl-2-(3'-propoxy-5,5'-bi(1,2,4-triazin)-3-yloxy)ethanamine oxide formation by LC-MS/MS(CID) analysis; type: ADME, Microsome
# [6] = Apparent half life in Swiss mouse at 27 mg/kg, po measured up to 24 hrs by LC-MS analysis; details: in vivo, read-out: t1/2(app) (converted)
# [7] = Drug metabolism in human hepatocytes assessed as N-methyl-2-(3'-propoxy-5,5'-bi(1,2,4-triazin)-3-yloxy)ethanamine formation by LC-MS/MS(CID) analysis; type: ADME, cell-based, Hepatocyte
# [8] = Drug metabolism in mouse hepatocytes assessed as oxygenated metabolite M+16(2) formation by LC-MS/MS(CID) analysis; type: ADME, cell-based, Hepatocyte
# [9] = Drug metabolism in mouse hepatocytes assessed as glucuronides/sulfates metabolite formation by LC-MS/MS(CID) analysis; type: ADME, cell-based, Hepatocyte
# [10] = Drug metabolism in rat hepatocytes assessed as 3'-propoxy-5,5'-bi(1,2,4-triazin)-3-ol formation by LC-MS/MS(CID) analysis; type: ADME, cell-based, Hepatocyte
# [11] = Drug metabolism in rat hepatocytes assessed as oxygenated metabolite M+16(2) formation by LC-MS/MS(CID) analysis; type: ADME, cell-based, Hepatocyte
# [12] = Drug metabolism in rat liver microsomes assessed as 3'-propoxy-5,5'-bi(1,2,4-triazin)-3-ol formation by LC-MS/MS(CID) analysis; type: ADME, Microsome
# [13] = Drug metabolism in rat liver microsomes assessed as N-methyl-2-(3'-propoxy-5,5'-bi(1,2,4-triazin)-3-yloxy)ethanamine formation by LC-MS/MS(CID) analysis; type: ADME, Microsome
# [14] = Drug metabolism in rat hepatocytes assessed as glucuronides/sulfates metabolite formation by LC-MS/MS(CID) analysis; type: ADME, cell-based, Hepatocyte
# [15] = Drug metabolism in human hepatocytes assessed as 3'-propoxy-5,5'-bi(1,2,4-triazin)-3-ol formation by LC-MS/MS(CID) analysis; type: ADME, cell-based, Hepatocyte
# [16] = Drug metabolism in Sprague-Dawley rat urine assessed as N-methyl-2-(3'-propoxy-5,5'-bi(1,2,4-triazin)-3-yloxy)ethanamine formation at 10 mg/kg, po by high-resolution mass spectrometry; type: ADME, organism-based; details: in vivo
# HEK293 = test: Cytotoxicity against HEK293 cells incubated for 24 hrs by MTT assay; type: cell-based; details: Homo sapiens, HEK293, 24 h
# [17] = Intrinsic clearance in human liver microsomes assessed per mg of protein in presence of NADPH by UPLC-MS analysis; type: ADME, Microsome; details: read-out: CLH
# [18] = Drug concentration in blood of NOD-SCID 1L2Rgamma mouse infected with Plasmodium falciparum 3D70087/N9 at 50 mg/kg, po measured after 6 hrs by LC-MS/MS analysis; type: ADME, organism-based; details: read-out: Drug uptake
# Plasmodium = test: Antimalarial activity against Plasmodium assessed as transmission blocking potential by measuring reduction in male gamete formation by dual gamete formation assay; type: functional, organism-based
# [19] = Drug metabolism in rat hepatocytes assessed as N-methyl-2-(3'-propoxy-5,5'-bi(1,2,4-triazin)-3-yloxy)ethanamine formation by LC-MS/MS(CID) analysis; type: ADME, cell-based, Hepatocyte
# Cytochrome P450 2C19 = Cytochrome P450 2C19 (Homo sapiens, UniProt P33261); test: Inhibition of CYP2C19 in human liver microsomes assessed as reduction in […] activity by . high-pressure liquid chromatography-tandem mass spectrometry; type: ADME
# Chain of Cytochrome P450 2C19 (P33261 whole entry): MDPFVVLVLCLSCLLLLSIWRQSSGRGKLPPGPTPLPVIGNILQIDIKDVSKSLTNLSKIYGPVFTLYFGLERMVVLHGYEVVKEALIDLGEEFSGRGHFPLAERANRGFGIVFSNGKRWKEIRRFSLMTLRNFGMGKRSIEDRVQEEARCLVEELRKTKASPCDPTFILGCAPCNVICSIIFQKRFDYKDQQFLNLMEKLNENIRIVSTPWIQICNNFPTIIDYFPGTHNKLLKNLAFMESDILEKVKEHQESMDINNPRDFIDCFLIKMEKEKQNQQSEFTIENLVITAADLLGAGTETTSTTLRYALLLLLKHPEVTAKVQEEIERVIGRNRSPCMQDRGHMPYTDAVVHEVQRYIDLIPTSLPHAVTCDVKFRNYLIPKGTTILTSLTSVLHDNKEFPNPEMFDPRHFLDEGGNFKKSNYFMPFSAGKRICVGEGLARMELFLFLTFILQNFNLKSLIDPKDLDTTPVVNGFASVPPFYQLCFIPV
# Plasmodium falciparum = test: Antiplasmodial activity against Plasmodium falciparum 3D70087/N9 infected in NOD-SCID 1L2Rgamma mouse assessed as reduction in parasitemia at 50 mg/kg, po administered for 4 days starting from day 3 post infection by Peter's 4-day test; type: functional, organism-based
# [20] = Drug metabolism in Sprague-Dawley rat urine assessed as oxygenated metabolite M+16(2) formation at 3 mg/kg, iv by high-resolution mass spectrometry; type: ADME, organism-based; details: in vivo
# [21] = Drug metabolism in mouse liver microsomes assessed as 3'-propoxy-5,5'-bi(1,2,4-triazin)-3-ol formation by LC-MS/MS(CID) analysis; type: ADME, Microsome
# [22] = Drug metabolism in Sprague-Dawley rat feces assessed as oxygenated metabolite M+16(1) formation at 10 mg/kg, po by high-resolution mass spectrometry; type: ADME, organism-based; details: in vivo
# [23] = Cmax in Swiss mouse plasma at 27 mg/kg, po measured up to 24 hrs by LC-MS analysis; type: ADME, organism-based; parameters: route oral, dose 27 mg/kg, time <=24
# [24] = Oral bioavailability in Swiss mouse at 2.8 mg/kg measured up to 24 hrs; type: ADME, organism-based; details: in vivo
# [25] = Drug metabolism in Sprague-Dawley rat feces assessed as N-methyl-2-(3'-propoxy-5,5'-bi(1,2,4-triazin)-3-yloxy)ethanamine formation at 10 mg/kg, po by high-resolution mass spectrometry; type: ADME, organism-based; details: in vivo
# Cytochrome P450 1A2 = biological target: T1, Cytochrome P450 1A2 (Homo sapiens, UniProt P05177); test: Inhibition of CYP1A2 in human liver microsomes assessed as reduction in […] activity by . high-pressure liquid chromatography-tandem mass spectrometry; type: ADME
# T1 sequence (P05177 whole entry): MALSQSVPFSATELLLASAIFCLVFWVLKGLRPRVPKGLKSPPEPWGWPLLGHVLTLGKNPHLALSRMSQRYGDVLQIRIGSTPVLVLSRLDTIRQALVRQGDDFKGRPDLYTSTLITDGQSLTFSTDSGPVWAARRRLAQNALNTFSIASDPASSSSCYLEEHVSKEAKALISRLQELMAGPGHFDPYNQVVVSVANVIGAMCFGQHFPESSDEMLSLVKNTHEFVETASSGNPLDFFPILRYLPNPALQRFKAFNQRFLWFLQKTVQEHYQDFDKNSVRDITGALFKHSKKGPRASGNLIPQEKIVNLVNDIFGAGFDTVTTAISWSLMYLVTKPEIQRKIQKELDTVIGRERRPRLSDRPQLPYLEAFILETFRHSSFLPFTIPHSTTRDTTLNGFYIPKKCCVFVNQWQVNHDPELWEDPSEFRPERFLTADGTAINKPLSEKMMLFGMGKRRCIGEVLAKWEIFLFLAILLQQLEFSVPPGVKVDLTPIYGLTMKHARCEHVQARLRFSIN
# [26] = Apparent permeability across basolateral side to apical side in human Caco2 cells measured over 120 mins by LC-MS analysis; type: ADME, cell-based; details: Caco-2
structure (smiles),measurement,setting,value
CCCOc1nncc(-c2cnnc(OCCN(C)C)n2)n1,Drug metabolism,[1],Metabolite_Detected
same,Drug metabolism,[2],Metabolite_Detected
same,IC50,Cytochrome P450 2D6,> 20 µM
same,Drug metabolism,[3],Metabolite_Notdetected
same,clearance,[4],232 mL/min/kg
same,Drug metabolism,[5],Metabolite_Detected
same,half-life,[6],3 h
same,Drug metabolism,[7],Metabolite_Notdetected
same,Drug metabolism,[8],Metabolite_Detected
same,Drug metabolism,[9],Metabolite_Notdetected
same,Drug metabolism,[10],Metabolite_Detected
same,Drug metabolism,[11],Metabolite_Detected
same,Drug metabolism,[12],Metabolite_Notdetected
same,Drug metabolism,[13],Metabolite_Detected
same,Drug metabolism,[14],Metabolite_Notdetected
same,Drug metabolism,[15],Metabolite_Notdetected
same,Drug metabolism,[16],Metabolite_Detected
same,EC50,HEK293,36 µM
same,microsomal CLint,[17],8 µL/min/mg
same,concentration at 6 h,[18],150 ng/mL
same,EC50,Plasmodium,1.2 µM
same,Drug metabolism,[19],Metabolite_Detected
same,IC50,Cytochrome P450 2C19,> 20 µM
same,Activity,Plasmodium falciparum,Active
same,Drug metabolism,[20],Metabolite_Detected
same,Drug metabolism,[21],Metabolite_Detected
same,Drug metabolism,[22],Metabolite_Detected
same,Cmax,[23],82 nM
same,bioavailability,[24],10%
same,Drug metabolism,[25],Metabolite_Detected
same,IC50,Cytochrome P450 1A2,> 20 µM
same,Papp B→A at 2 h,[26],46 ×10⁻⁶ cm/s
